This note sets out measurements from article PMC8694140, “Synthesis and photobiological applications of naphthalimide–benzothiazole conjugates: cytotoxicity and topoisomerase IIα inhibition” (RSC Advances, 2021).

By melting point is commonly meant the temperature, or range, at which the solid turns liquid. One may read the IC50 as the concentration that inhibits the measured activity by half. A lower IC50 goes with greater potency in that assay. In general, inhibition refers to the drop in the measured response relative to a control, in per cent.

Series [1] has as its system MCF7 (breast) human cancer cell line. As to the kind of experiment: MTT cytotoxicity assay, MCF7. The format is cell-based. As for the experimental part: (§1) Human malignant cell lines, i.e., MCF7 (breast), HeLa (cervix), and A549 (lung), as well as non-cancerous human cell line Hek293 (kidney), were cultured using the Ham's media or DMEM having 10% FBS, […] streptomycin, 100 U ml^−1 penicillin, and 50 mM glutamine. For seeding of cells, 96 well plates were used, maintaining the density of […] cells per well with the help of DMEM as a media having 10% FBS cells. Then, seeded cells were incubated in an incubator having a 5% CO2 supply at 37 °C. Compounds were added to the wells at 1, 10, and 100 μM concentrations, and cells were incubated for 48 h at 37 °C and then added 10 μl of MTT to each well prepared from 5 mg ml^−1 stock solution using 1 × PBS buffer and were incubated for 4 h at 37 °C in the dark. DMSO (100 μl) was used to dissolve the formazan crystals. To determine the concentration of formazan, the crystal absorbance difference was recorded at 570 nm. The percentage of relative cell toxicity was calculated by using the following eqn (1):1 [drawing 1]

The test system of series [2] is A549 (lung) human cancer cell line. In words: MTT cytotoxicity assay, A549. It is filed as cell-based. As for the experimental part:
as §1
(Tetrazolium assays rely on reduction of a dye to a coloured formazan, in cell work by metabolically active cells.)

Series [3] has as its system HeLa (cervix) human cancer cell line. As to the kind of experiment: MTT cytotoxicity assay, HeLa. It is filed as cell-based. The conditions noted are these: 48 h. The procedure:
as §1

The test system of series [4] is Hek293 (kidney) human noncancerous cell line. In words: MTT cytotoxicity assay, normal cells Hek293. The settings on record: read-out: growth inhibition of Hek293. It is filed as cell-based. The procedure:
To evaluate the safety, the cytotoxic effect of all compounds (7–22) against Hek293 (kidney) human noncancerous cell line was also evaluated using a colorimetric assay (MTT assay) at the concentration level of 10 μM.
as §1

Consider `C=CCn1cc(-c2nc3ccccc3s2)c2cc(-c3ccc4c5c(cccc35)C(=O)N(Cc3ccccc3)C4=O)ccc21` [Compound 17, 6-(1-Allyl-3-(benzo[d]thiazol-2-yl)-1H-indol-5-yl)-2-benzyl-1H-benzo[de]isoquinoline-1,3(2H)-dione], for which the melting point lay within 281 to 284 °C. The compound further showed an IC50 in series [1] (Homo sapiens, MCF7, 48 h) of 4.39 ± 0.23 µM. The compound further showed an IC50 in series [2] (Homo sapiens, A549, 48 h) of 2.01 ± 0.09 µM. For the same compound, inhibition in series [3] (Homo sapiens) was half-maximal at 4.17 ± 0.21 µM (IC50).
For `C=CCn1cc(-c2nc3ccccc3s2)c2cc(-c3ccc4c5c(cccc35)C(=O)N(C3CCCCC3)C4=O)ccc21` [Compound 19, 6-(1-Allyl-3-(benzo[d]thiazol-2-yl)-1H-indol-5-yl)-2-cyclohexyl-1H-benzo[de]isoquinoline-1,3(2H)-dione] the same measures were 285 to 288 °C, 1.65 ± 0.11 µM, 1.47 ± 0.12 µM and 3.33 ± 0.11 µM.
In turn, `C=CCn1cc(-c2nc3ccccc3s2)c2cc(-c3ccc4c5c(cccc35)C(=O)N(CCN3CCNCC3)C4=O)ccc21` [Compound 20, 6-(1-Allyl-3-(benzo[d]thiazol-2-yl)-1H-indol-5-yl)-2-(2-(piperazin-1-yl)ethyl)-1H-benzo[de] isoquinoline-1,3(2H)-dione] showed a melting point of 294 to 297 °C. The IC50 in series [1] (Homo sapiens, MCF7, 48 h) is 3.35 ± 0.16 µM. The compound also gave an IC50 in series [2] (Homo sapiens, A549, 48 h) of 0.76 ± 0.04 µM. The compound also showed an IC50 in series [3] (Homo sapiens) of 3.45 ± 0.13 µM. In series [4], the inhibition at 10 µM stood at 18%.
Turning to `CCCn1cc(-c2nc3ccccc3s2)c2cc(-c3ccc4c5c(cccc35)C(=O)N(N)C4=O)ccc21` [Compound 22, 2-Amino-6-(3-(benzo[d]thiazol-2-yl)-1-propyl-1H-indol-5-yl)-1H-benzo[de]isoquinoline-1,3(2H)-dione], the half-maximal inhibitory concentration (IC50) in series [1] (Homo sapiens, MCF7, 48 h) turned out to be 5.84 ± 0.28 µM; in series [2] (Homo sapiens, A549, 48 h), 0.84 ± 0.07 µM; in series [3] (Homo sapiens) it was 8.59 ± 0.28 µM.
The compound `C=CCn1cc(-c2nc3ccccc3s2)c2cc(-c3ccc4c5c(cccc35)C(=O)N(CCCC)C4=O)ccc21` [Compound 8, 6-(1-Allyl-3-(benzo[d]thiazol-2-yl)-1H-indol-5-yl)-2-butyl-1H-benzo[de]isoquinoline-1,3(2H)-dione] displayed a melting point of 277 to 280 °C. The same compound showed an IC50 in series [1] (Homo sapiens, MCF7, 48 h) of 7.69 ± 0.2 µM. The same compound yielded a concentration for half-maximal inhibition (IC50) in series [2] (Homo sapiens, A549, 48 h) of 1.19 ± 0.11 µM. In series [3] (Homo sapiens), this compound showed an IC50 of 5.52 ± 0.15 µM.
For `C=CCn1cc(-c2nc3ccccc3s2)c2cc(-c3ccc4c5c(cccc35)C(=O)NC4=O)ccc21` [Compound 16, 6-(1-Allyl-3-(benzo[d]thiazol-2-yl)-1H-indol-5-yl)-1H-benzo[de]isoquinoline-1,3(2H)-dione] the same measures were 277 to 280 °C, 3.57 ± 0.08 µM, 1.91 ± 0.1 µM and 3.61 ± 0.19 µM.
The compound `C=CCn1cc(-c2nc3ccccc3s2)c2cc(-c3ccc4c5c(cccc35)C(=O)N(CCN3CCOCC3)C4=O)ccc21` [Compound 14, 6-(1-Allyl-3-(benzo[d]thiazol-2-yl)-1H-indol-5-yl)-2-(2-morpholinoethyl)-1H-benzo[de]isoquinoline-1,3(2H)-dione] yielded a melting point of 285 to 288 °C. This compound also yielded an IC50 in series [1] (Homo sapiens, MCF7, 48 h) of 3.69 ± 0.09 µM. Besides, in series [2] (Homo sapiens, A549, 48 h), half-maximal inhibition (IC50) was put at 1.11 ± 0.06 µM. 3.93 ± 0.11 µM corresponded to half-maximal inhibition in series [3] (Homo sapiens) (IC50).
`C=CCn1cc(-c2nc3ccccc3s2)c2cc(-c3ccc4c5c(cccc35)C(=O)N(CCN(CC)CC)C4=O)ccc21` [Compound 11, 6-(1-Allyl-3-(benzo[d]thiazol-2-yl)-1H-indol-5-yl)-2-(2-(diethylamino)ethyl)-1H-benzo[de] isoquinoline-1,3(2H)-dione] yielded a melting point of 281 to 284 °C. In series [1] (Homo sapiens, MCF7, 48 h), this compound gave an IC50 of 3.57 ± 0.21 µM. In series [2] (Homo sapiens, A549, 48 h), this compound gave an IC50 of 0.81 ± 0.05 µM. This compound also showed an IC50 in series [3] (Homo sapiens) of 3.07 ± 0.17 µM. Also, in series [4], the inhibition at 10 µM was roughly 2%.
Take “6-(3-(Benzo[d]thiazol-2-yl)-1-propyl-1H-indol-5-yl)-2-(4-fluorophenyl)-1H-benzo[de]isoquinoline-1,3(2H)-dione [Compound 21]”: the IC50 in series [1] (48 h) was determined as 4.1 ± 0.23 µM; in series [2] (48 h) it was 0.63 ± 0.08 µM; in series [3] it was 3.96 ± 0.16 µM.
In the case of `C=CCn1cc(-c2nc3ccccc3s2)c2cc(-c3ccc4c5c(cccc35)C(=O)N(Nc3ccccc3)C4=O)ccc21` [Compound 18, 6-(1-Allyl-3-(benzo[d]thiazol-2-yl)-1H-indol-5-yl)-2-(phenylamino)-1H-benzo[de]isoquinoline-1,3(2H)-dione], the IC50 turned out to be 3.58 ± 0.14 µM in series [1] (Homo sapiens, MCF7, 48 h); 0.96 ± 0.12 µM in series [2] (Homo sapiens, A549, 48 h); 3.96 ± 0.2 µM in series [3] (Homo sapiens).
On the same counts, the results for `C=CCN1C(=O)c2cccc3c(-c4ccc5c(c4)c(-c4nc6ccccc6s4)cn5CC=C)ccc(c23)C1=O` [Compound 15, 2-Allyl-6-(1-allyl-3-(benzo[d]thiazol-2-yl)-1H-indol-5-yl)-1H-benzo[de]isoquinoline-1,3(2H)-dione] are 0.38 ± 0.06 µM, 1.89 ± 0.15 µM and 2.71 ± 0.09 µM.
Turning to `C=CCn1cc(-c2nc3ccccc3s2)c2cc(-c3ccc4c5c(cccc35)C(=O)OC4=O)ccc21` [Compound 7, 6-(1-Allyl-3-(benzo[d]thiazol-2-yl)-1H-indol-5-yl)-1H,3H-benzo[de]isochromene-1,3-dione], the melting point fell in the range of 255 to 258 °C. This compound returned an IC50 in series [1] (Homo sapiens, MCF7, 48 h) of 6.94 ± 0.16 µM. In series [2] (Homo sapiens, A549, 48 h), the IC50 was 0.45 ± 0.04 µM. In addition, in series [3] (Homo sapiens), inhibition was half-maximal at 7.18 ± 0.28 µM (IC50).
With `COc1cc([C@@H]2c3cc4c(cc3[C@@H](O[C@@H]3O[C@@H]5CO[C@@H](C)O[C@H]5[C@H](O)[C@H]3O)[C@H]3COC(=O)[C@H]23)OCO4)cc(OC)c1O` [Etoposide, reference compound], the IC50 in series [1] (Homo sapiens, MCF7, 48 h) amounted to 0.33 ± 0.13 µM; in series [2] (Homo sapiens, A549, 48 h), 0.1 ± 0.02 µM; in series [3] (Homo sapiens), 1.89 ± 0.19 µM.
For `C=CCn1cc(-c2nc3ccccc3s2)c2cc(-c3ccc4c5c(cccc35)C(=O)N(CCN)C4=O)ccc21` [Compound 9, 6-(1-Allyl-3-(benzo[d]thiazol-2-yl)-1H-indol-5-yl)-2-(2-aminoethyl)-1H-benzo[de]isoquinoline-1,3(2H)-dione], the IC50 in series [1] (Homo sapiens, MCF7, 48 h) was determined as 4.17 ± 0.13 µM; in series [2] (Homo sapiens, A549, 48 h), 3.06 ± 0.13 µM; in series [3] (Homo sapiens), 4.02 ± 0.18 µM. In addition, the inhibition at 10 µM in series [4] came to 17%.
In turn, `C=CCn1cc(-c2nc3ccccc3s2)c2cc(-c3ccc4c5c(cccc35)C(=O)N(CCN(C)C)C4=O)ccc21` [Compound 10, 6-(1-Allyl-3-(benzo[d]thiazol-2-yl)-1H-indol-5-yl)-2-(2-(dimethylamino)ethyl)-1H-benzo[de] isoquinoline-1,3(2H)-dione] came in with a melting point of 274 to 277 °C. This compound also yielded an IC50 in series [1] (Homo sapiens, MCF7, 48 h) of 3.31 ± 0.11 µM. The IC50 in series [2] (Homo sapiens, A549, 48 h) was determined as 1.02 ± 0.08 µM. Further, in series [3] (Homo sapiens), it took 3.4 ± 0.13 µM to reach half-maximal inhibition (IC50).
